Experimental data taken from US10316371B2, “Screening methods for identifying specific Staphylococcus aureus inhibitors” (TRANA DISCOVERY, INC., priority 2011, dated 2019).
In brackets after ≈: the same amount, converted by molar mass. Read-outs that look alike come from different tables or passages of the source.

Assays:
K. pneumoniae 700603 = test: MIC; format: cell-based; conditions: Klebsiella pneumoniae
[1] = test system: SA USA 300 (Methicillin-Resistant Staphylococcus aureus USA300); test: MIC; format: cell-based
Procedure: (§1) The strains included Staphylococcus aureus, Methicillin Resistant (ATCC 33591), Methicillin-Resistant Staphylococcus aureus USA300, Staphylococcus aureus 158, Staphylococcus aureus 22, Staphylococcus aureus 2, Staphylococcus aureus (ATCC 29213), and Staphylococcus aureus 182.
(§2) A series of compounds were evaluated for their activity against drug resistant S. aureus, including MSSA and MRSA strains.

[2] = test system: SA 33591 (Staphylococcus aureus, Methicillin Resistant (ATCC 33591)); test: MIC; format: cell-based
Procedure: as §1, §2

[3] = test system: SA 22 (Staphylococcus aureus 22); test: MIC; format: cell-based
Procedure: as §1, §2

[4] = test system: SA 29213 (Staphylococcus aureus (ATCC 29213)); test: MIC; format: cell-based
Procedure: as §1, §2

[5] = test system: SA 182 (Staphylococcus aureus 182); test: MIC; format: cell-based
Procedure: as §1, §2

[6] = test system: SA 158 (Staphylococcus aureus 158); test: MIC; format: cell-based
Procedure: as §1, §2

[7] = test system: SA 2 (Staphylococcus aureus 2); test: MIC; format: cell-based
Procedure: as §1, §2

K. pneumoniae UMM = test: MIC; format: cell-based; conditions: Klebsiella pneumoniae
Mammalian Cell Toxicity [8] = format: cell-based; conditions: mouse, 3T3 cells
[9] = test system: S. aureus specific Arg ASL (anticodon stem loop) RNA oligomer interaction with programmed ribosomes; test: Fluorescence polarization assay of Arg ASL / programmed ribosome complex (HTS and dose response); format: binding, S. aureus Arg ASL; E. coli 70S ribosomes; conditions: 6 pt dose response, fluorescence polarization after 4 hours at 25° C., corrected for auto-fluorescence
From the text: The assay requires the following materials: • Ribosomes—isolated from E. coli or S. aureus • fMet tRNA (Sigma or Chemical Block, Moscow) • mRNA (including the S-D sequence, the “box” sequence, the codon for methionine, and the codon for arginine that is specific for S. aureus, AGA, optionally with additional base pairs to the left of the S-D sequence and/or to the right of the codon for arginine) • Fluorescently labeled Arg ASL oliogomer • Buffer—HAM20,β • 384 well high binding micro titer plates (Matrix Technologies #4319, sold by Fischer Scientific as cat #50823855), or other appropriate plates for use in high throughput screening • Filtration (Sartorius Stedium 100 Kdalton VC 1042) or centrifugation for complex purification • EDTA—negative control (binding antagonist) • Neomycin—A-site binding enhancer (binding agonist)
A ribosome complex was prepared using the above materials and then purified prior to use in the assay. The prepared complex can be stored in concentrated form at −80° C. The complexes were diluted in buffer and dispensed onto plates. […] Fluorescence polarization was measured at approximately 4 hours after dispensing onto the micro-titer plates.
ASL^Arg was first heated for 2 min at 90° C. in water, after addition of 1/10 V of 10× buffer incubation continued on ice for at least 10 min. Prior to complex formation 70S ribosomes and tRNA were reactivated in buffer for 5 min at 45° C. followed by 10 min at 37° C.; mRNA was heated in buffer at 37° C. for 5 min. • (1000 μl×(2 μM E. coli 70S ribosomes+10 μM mRNA-Arg+4 μM tRNA^fmet)/HAM20,β→30 min @ 37° C.,+1000 μl×(0.2 μM neomycin+[…]))→20 min @ 37° C., overnight on ice • Final complex: (2000 pm P+2000 pm ASL)/2 ml=1 μM P+1 μM ASL HAM20,β:
Preparation of Complexes: The purified complex was diluted in ice cold HAM20,β such that the total fluorescence was approximately 2,000,000 units per 5 μL.
20 μl of the diluted complex was added to all 384 well plates (except for blank wells, which received 20 μL of HAM20 only, without complex) using Multidrop dispenser after which the plates were incubated at 25° C. for 4 hours (target 4.5 hours for middle of batch). Plates were then analyzed for fluorescence polarization in Analyst HT fluorescence plate reader and the following instrument settings:
The parallel and perpendicular fluorescence values of experimental wells were automatically corrected for the corresponding values obtained from the blank wells. The fluorescence polarization was calculated as following: P=(I−Ip)/(I+Ip), wherein Ip—is perpendicular fluorescence and I—is parallel fluorescence.
The percent of effect of experimental compounds was calculated as following: %-Inh=(P0−Pc)/(P0−P100)*100, wherein P0—is average polarization in 0%—inhibition control wells, P100—is average polarization in 100%—inhibition control wells, and Pc—is polarization in compound well.
The 3 sigma HTS hits were cherry picked and retested in 6 pt dose response format, using 3× serial dilution and the top nominal concentration of 100 uM.
The compounds were serially diluted in 10% DMSO and plated into 384 well plates (in a volume of 5 μL) to achieve the nominal final concentration raging from 100 μM to 0.4 μM. The plates received 20 μl of the diluted complex following incubation at 25° C. for 4 hours. Plates were then analyzed for fluorescence polarization as described above (see HTS section).
In parallel, the compounds were tested for auto-fluorescence. To this end, the compounds were plated (using the same dilution protocol) into 384 well plates. The plates received 20 μL of the HAM20 assay buffer only (without complex). The plates were incubated for 4 hrs and then were analyzed for fluorescence polarization as described above.

E. coli 25922 = test: MIC; format: cell-based; conditions: Escherichia coli
E. coli ESBL 4 = test: MIC; format: cell-based; conditions: Escherichia coli, ESBL4
S. pneumoniae 49619 = test: MIC; format: cell-based; conditions: Streptococcus pneumoniae
Procedure: (§3) The compounds were re-tested against other bacteria, including Staphylococcus epidermidis (ATCC 35984), Staphylococcus epidermidis (MRSE), E. faecium 134529, E. faecium 145494, […], E. faecium 161651, S. pneumoniae 49619, and S. pneumoniae 149389.
as §2

S. epidermidis 35984 = test: MIC; format: cell-based; conditions: Staphylococcus epidermidis
Procedure: as §3, §2

E. faecalis 29212 = test: MIC; format: cell-based; conditions: Enterococcus faecalis
Procedure: as §3, §2

E. faecalis 161651 = test: MIC; format: cell-based; conditions: Enterococcus faecalis
Procedure: as §3, §2

E. faecium 134529 = test: MIC; format: cell-based; conditions: Enterococcus faecium
Procedure: as §3, §2

S. epidermidis MRSE 01 = test: MIC; format: cell-based; conditions: Staphylococcus epidermidis
Procedure: as §3, §2

E. faecium 145494 = test: MIC; format: cell-based; conditions: Enterococcus faecium
Procedure: as §3, §2

S. pneumoniae 149389 = test: MIC; format: cell-based; conditions: Streptococcus pneumoniae
Procedure: as §3, §2

Mammalian Cell Toxicity [10] = format: cell-based; conditions: human, MRC5 cells
[11] = K. pneumoniae 700603, read-out: MIC
[12] = ATCC33591, SA 33591, read-out: MIC
[13] = ATCC29213, SA 29213, read-out: MIC
[14] = K. pneumoniae UMM, read-out: MIC
[15] = S. pneumoniae 49619, read-out: MIC
[16] = S. epidermidis 35984, read-out: MIC
[17] = E. faecalis 29212, read-out: MIC
[18] = E. faecalis 161651, read-out: MIC
[19] = E. faecium 134529, read-out: MIC
[20] = S. epidermidis MRSE 01, read-out: MIC
[21] = E. faecium 145494, read-out: MIC
[22] = S. pneumoniae 149389, read-out: MIC

| Structure (SMILES) | MIC (K. pneumoniae 700603; [11]) [µg/mL] | MIC ([1]; SA USA 300, read-out: MIC) [µg/mL] | MIC [2, 12] [µg/mL] | MIC ([3]; SA 22, read-out: MIC) [µg/mL] | MIC [4, 13] [µg/mL] | MIC ([5]; SA 182, read-out: MIC) [µg/mL] | MIC ([6]; SA 158, read-out: MIC) [µg/mL] | MIC ([7]; SA 2, read-out: MIC) [µg/mL] | MIC (K. pneumoniae UMM; [14]) [µg/mL] | CC50 (Mammalian Cell Toxicity [8]) [µg/mL] | IC50 [9] | MIC (E. coli 25922; E. coli 25922, read-out: MIC) [µg/mL] | MIC (E. coli ESBL 4; E. coli ESBL 4, read-out: MIC) [µg/mL] | MIC (S. pneumoniae 49619; [15]) [µg/mL] | MIC (S. epidermidis 35984; [16]) [µg/mL] | MIC (E. faecalis 29212; [17]) [µg/mL] | MIC (E. faecalis 161651; [18]) [µg/mL] | MIC (E. faecium 134529; [19]) [µg/mL] | MIC (S. epidermidis MRSE 01; [20]) [µg/mL] | CC50 (Mammalian Cell Toxicity [10]) [µg/mL] | other results |
| --- | --- | --- | --- | --- | --- | --- | --- | --- | --- | --- | --- | --- | --- | --- | --- | --- | --- | --- | --- | --- | --- |
| COc1ccc2c(c1)c(=O)oc1c(C)c(OC(C(=O)O)c3ccccc3)ccc12 (stereo not drawn) [Compound #211, [(8-methoxy-4-methyl-6-oxo-6H-benzo[c]chromen-3-yl)oxy](phenyl)acetic acid] | > 128 | 128 (≈ 328 µM) | > 128 | 128 (≈ 328 µM) | 128 (≈ 328 µM) | 128 (≈ 328 µM) | 128 (≈ 328 µM) | 128 (≈ 328 µM) | > 128 | 28 (≈ 71.7 µM) | agonist | > 128 | > 128 | 32 (≈ 82 µM) | > 128 | 128 (≈ 328 µM) | 128 (≈ 328 µM) | > 128 | > 128 | 26 (≈ 66.6 µM) | MIC (E. faecium 145494; [21]): > 128 µg/mL; MIC (S. pneumoniae 149389; [22]): 128 µg/mL (≈ 328 µM) |
| CCN1C(=O)C2Cc3c([nH]c4ccccc34)CN2C1=S (stereo not drawn) [Compound #740, 2-ethyl-3-thioxo-2,3,5,6,11,11a-hexahydro-1H-imidazo[1′,5′:1,6]pyrido[3,4-b]indol-1-one] | > 128 | 128 (≈ 449 µM) | 128 (≈ 449 µM) | 32 (≈ 112 µM) | 64 (≈ 224 µM) | 128 (≈ 449 µM) | 128 (≈ 449 µM) | 32 (≈ 112 µM) | > 128 | 20 to 64 (≈ 70.1 to 224 µM) |  | > 128 | > 128 | > 128 | 128 (≈ 449 µM) | 128 (≈ 449 µM) | 128 (≈ 449 µM) | 64 (≈ 224 µM) | 64 (≈ 224 µM) | 62 (≈ 217 µM) | IC50 ([9]; read-out: IC50): 44.2 µM; MIC (E. faecium 145494; [21]): > 128 µg/mL; MIC (S. pneumoniae 149389; [22]): > 128 µg/mL |
| CC[n+]1c(C=CC=CN(C(C)=O)c2ccccc2)sc2ccccc21.[I-] [Compound #928, 2-{4-[acetyl(phenyl)amino]-1,3-butadien-1-yl}-3-ethyl-1,3-benzothiazol-3-ium iodide] |  |  |  |  |  |  |  |  |  | 20 to 64 | agonist |  |  |  |  |  |  |  |  | 20 to 64 | MIC (K. pneumoniae 700603; 700603): > 128 µg/mL; MIC [1]: 64 µg/mL; MIC ([2]; ATCC33591): 128 µg/mL; MIC [3]: 64 µg/mL; MIC ([4]; ATCC29213): 64 µg/mL; MIC [5]: > 128 µg/mL; MIC [6]: 128 µg/mL; MIC [7]: 128 µg/mL; MIC (K. pneumoniae UMM): > 128 µg/mL; MIC (E. coli 25922; 25922): > 128 µg/mL; MIC (E. coli ESBL 4): > 128 µg/mL; MIC (S. pneumoniae 49619; 49619): > 128 µg/mL; MIC (S. epidermidis 35984; 35984): 128 µg/mL; MIC (E. faecalis 29212; 29212): 128 µg/mL; MIC (E. faecalis 161651; 161651): 128 µg/mL; MIC (E. faecium 134529; 134529): 128 µg/mL; MIC (S. epidermidis MRSE 01; MRSE): 64 µg/mL; MIC (E. faecium 145494; 145494): 128 µg/mL; MIC (S. pneumoniae 149389; 149389): > 128 µg/mL |
